Reference: patent US20240164267A1, “GENETIC MECHANISM TO ENHANCE HEALTHY STEROLS AND HARD ENDOSPERM IN SEEDS” (Iowa State University Research Foundation, Inc., priority 2022, published 2024)

Tests used:
ZmHMGR mRNA = test: Exogenous sterol feeding of maize seedlings, relative mRNA quantification of ZmHMGR; assay type: in vivo; details: for ZmHMGR mRNA: wild type W22 roots
ZmSMT2 mRNA = test: Exogenous sterol feeding of maize seedlings, relative mRNA quantification of ZmSMT2; assay type: in vivo; details: for ZmSMT2 mRNA: wild type W22 roots
Experimental: FIG. 6C-D show relative mRNA quantification of ZmHMGR and ZmSMT2 genes in Zmcyp710a8-1 background in response to various sterols (10 μM) for 4 hours in roots (FIG. 6C) and in shoots (FIG. 6D). ZmACTIN served as the reference gene for normalization. Data are means±SD. Asterisks indicate statistical significance by Students t-test compared to 0 h in FIG. 6A and to Mock in FIG. 6B, FIG. 6C, and FIG. 6D. *P<0.05 **P<0.01 ***P<0.001; ns, not significant.

[1] = test system: Zmcyp710a8-1 mutant root metabolites; test: Exogenous stigmasterol feeding of Zmcyp710a8-1 mutant, metabolite levels in root tissue (GC/MS); assay type: in vivo, maize; details: root tissue of Zmcyp710a8-1 null mutant with exogenous stigmasterol feeding, compared with W22
Source text: Relative metabolite levels in the two maize mutants compared to their wild type are shown as fold changes in Root and Shoot. […] Asterisks indicate statistical significance by Students t-test compared to Zmcyp710a8-1. *P<0.05 **P<0.01 ***P<0.001.
To identify cellular metabolites influenced by stigmasterol, non-targeted GC/MS metabolite analysis of roots and shoots of maize Zmcyp710a8 and wild type was used. A total of 29 molecular features (13 known and 16 unknown molecular features) were identified in roots and 31 features (17 known and 14 unknown molecular features) in shoots (FIG. 7). The concentration of molecular features correlated with stigmasterol content among genotypes in maize and the features belonged to similar classes including sterol, amino acid, primary metabolism, and unknown features in roots and shoots (FIG. 7).
Since changes in metabolites among the genotypes correlated with stigmasterol content, it was reasoned that exogenous stigmasterol may reverse the metabolite levels in Zmcyp710a8-1 mutant to wild type levels.

[2] = 10 μM sterol feeding, after 4 and 8 h
[3] = roots and shoots of Zmcyp710a8-1, 10 μM sterol, 4 hours

CC[C@H](CC[C@@H](C)[C@H]1CC[C@H]2[C@@H]3CC=C4C[C@@H](O)CC[C@]4(C)[C@H]3CC[C@]12C)C(C)C [sitosterol]
ZmHMGR mRNA (ZmHMGR mRNA; [2]): did not have a significant impact | ZmSMT2 mRNA (ZmSMT2 mRNA; [2]): did not have a significant impact

CC[C@H](/C=C/[C@@H](C)[C@H]1CC[C@H]2[C@@H]3CC=C4C[C@@H](O)CC[C@]4(C)[C@H]3CC[C@]12C)C(C)C [stigmasterol]
ZmHMGR mRNA levels (ZmHMGR mRNA; [3]): higher | ZmHMGR mRNA (ZmHMGR mRNA; [2]): induction | ZmHMGR mRNA (ZmHMGR mRNA; 10 μM stigmasterol, after 8 h): remained elevated | levels of selected metabolites (sitosterol, campesterol, myo-inositol) [1]: shifted the levels of sitosterol, campesterol, and myo-inositol toward W22 levels | ZmSMT2 mRNA levels (ZmSMT2 mRNA; [3]): higher | ZmSMT2 mRNA (ZmSMT2 mRNA; [2]): induction | ZmSMT2 mRNA (ZmSMT2 mRNA; 10 μM stigmasterol, after 8 h): slightly decreased
